# Patent US9192605B2, “Compositions and methods for treating parkinson's disease” (priority 2009, dated 2015)
# Where two headings read alike, the source gives them in different places.
# Legend:
# [1] = clinical use as antipsychotic; cited from earlier work
# [2] = target: human cloned dopamine D2 receptors (Homo sapiens, UniProt P14416); conditions: cited from earlier work
# [3] = for Freezing during “on” score / Motor Fluctuations (presence) score / Motor Fluctuations (severity) score / Rise from Chair score / ADL Speech score / Alternating Movements score / Changing position, i.e. turning in bed score / Dressing score / Dyskinesias (presence) score / Dyskinesias (severity) score / Feeding score / Gait score / Handwriting score / Hygiene score / Postural Tremor score / Rigidity score / Speech score / Swallowing score / Walking score / Rest Tremor score: 40 micrograms haloperidol/day oral, one patient; for Freezing during “on” score / Motor Fluctuations (presence) score / Motor Fluctuations (severity) score / Rise from Chair score: Baseline Time 1 score 0; for ADL Speech score / Alternating Movements score / Changing position, i.e. turning in bed score / Dressing score / Dyskinesias (presence) score / Dyskinesias (severity) score / Feeding score / Gait score / Handwriting score / Hygiene score / Postural Tremor score / Rigidity score / Speech score / Swallowing score / Walking score: Baseline Time 1 score 1; for Rest Tremor score: Baseline Time 1 score 2
# rats = assay: locomotion, exploration and grooming of rats given low-dose haloperidol; assay type: in vivo, rat
# dopamine D2 receptors = dopamine D2 receptors (Homo sapiens, UniProt P14416); conditions: PET with [11C]raclopride, over 24 hours, schizophrenia patients and volunteers; cited from earlier work
compound,measurement,setting,value
Cc1cc2c(s1)Nc1ccccc1N=C2N1CCN(C)CC1 [olanzapine],extrapyramidal signs (EPS) in patients,[1],dose-dependent incidence of extrapyramidal signs
[^3H]quetiapine,rate of release from D2 receptors relative to [3H]haloperidol or [3H]chlorpromazine,[2],at least one hundred times faster
O=C(CCCN1CCC(O)(c2ccc(Cl)cc2)CC1)c1ccc(F)cc1 [haloperidol],Freezing during “on” score,[3]; Score Time 2,0
same,Motor Fluctuations (presence) score,[3]; Score Time 2,0
same,Motor Fluctuations (severity) score,[3]; Score Time 2,0
same,Rise from Chair score,[3]; Score Time 2,0
same,ADL Speech score,[3]; Score Time 2,0
same,Alternating Movements score,[3]; Score Time 2,0
same,"Changing position, i.e. turning in bed score",[3]; Score Time 2,1
same,Dressing score,[3]; Score Time 2,1
same,Dyskinesias (presence) score,[3]; Score Time 2,0
same,Dyskinesias (severity) score,[3]; Score Time 2,0
same,Feeding score,[3]; Score Time 2,1
same,Gait score,[3]; Score Time 2,0
same,Handwriting score,[3]; Score Time 2,1
same,Hygiene score,[3]; Score Time 2,1
same,Postural Tremor score,[3]; Score Time 2,1
same,Rigidity score,[3]; Score Time 2,2
same,Speech score,[3]; Score Time 2,0
same,Swallowing score,[3]; Score Time 2,0
same,Walking score,[3]; Score Time 2,0
same,Rest Tremor score,[3]; Score Time 2,2
same,Freezing during “on” score,[3]; Score Time 3,0
same,Motor Fluctuations (presence) score,[3]; Score Time 3,0
same,Motor Fluctuations (severity) score,[3]; Score Time 3,0
same,Rise from Chair score,[3]; Score Time 3,0
same,ADL Speech score,[3]; Score Time 3,0
same,Alternating Movements score,[3]; Score Time 3,1
same,"Changing position, i.e. turning in bed score",[3]; Score Time 3,1
same,Dressing score,[3]; Score Time 3,1
same,Dyskinesias (presence) score,[3]; Score Time 3,0
same,Dyskinesias (severity) score,[3]; Score Time 3,0
same,Feeding score,[3]; Score Time 3,1
same,Gait score,[3]; Score Time 3,1
same,Handwriting score,[3]; Score Time 3,1
same,Hygiene score,[3]; Score Time 3,1
same,Postural Tremor score,[3]; Score Time 3,1
same,Rigidity score,[3]; Score Time 3,2
same,Speech score,[3]; Score Time 3,0
same,Swallowing score,[3]; Score Time 3,0
same,Walking score,[3]; Score Time 3,0
same,Rest Tremor score,[3]; Score Time 3,2
same,clinical observation: involuntary movements,"[3]; Time 1 or Time 2, apart from resting tremor of right hand present at all times",No involuntary movements noted
same,overall conclusion,"[3]; baseline to Time 1 and 2, most noticeable walking and overall presentation",A slight improvement from baseline to Time 1 and 2 on certain markers
same,clinical observation: rigidity on palpation,"[3]; elbow joint, no rigidity on left, 40 micrograms/day oral",Slight increase in rigidity on palpation of elbow joint on right side
same,"clinical observation: appearance, facial features","[3]; time 1 and 2 vs baseline, 40 micrograms/day oral","appeared brighter, less flat facial features"
same,behaviour of the animals,"rats; 0.0025 mg/kg/day, 5 days","heightened locomotion, active exploration and good grooming"
same,behaviour of the animals,"rats; 0.005 mg/kg, on days 3-5 or upon stopping the haloperidol",spontaneously increased locomotion and well-being
same,behaviour of the animals,rats; haloperidol 0.03 mg/kg down to 0.0025 mg/kg,heightened locomotion and active exploration
OCCOCCN1CCN(C2=Nc3ccccc3Sc3ccccc32)CC1 [quetiapine],time course of human striatum D2 occupancy,dopamine D2 receptors,rapidly falls off within 24 hours
same,extrapyramidal signs (EPS) in patients,[1],essentially no EPS occurs
